Laboratory results as given in patent US11912569B2, “Method for manufacturing chlorous acid water using raw material obtained by salt electrolysis” (HONBUSANKEI CO., LTD., priority 2016, dated 2024).
Like-named read-outs stand apart in the source and are kept apart here.

Columns and labels:
E. coli [1] = format: cell-based
Protocol: The following samples were prepared to measure the oxidation capability: sodium hypochlorite converted concentration and phenol coefficient for each of the chlorine oxides.
These samples were used to measure the oxidation capability: sodium hypochlorite converted concentration and phenol coefficient while appropriately dilution with ion exchange water.
The following sample was prepared. The oxidation capability and phenol coefficient were measured immediately after manufacture and on day 5.
They were compared based on dissolved chlorine dioxide as the control.

E. coli [2] = assay: Phenol coefficient method; format: cell-based
Protocol: The following is the operation method thereof.
5% phenol solution: Phenol is dissolved with hot water of about 70° C. 25 mL is measured out and precisely diluted to 500 mL with water (40° C.). The specific gravity at 20° C. is confirmed to be within the range of 1.000±0.005.
Liquid medium (1 L volume): 18.0 g of normal broth medium is added to 1 L of water in a 1000 mL Erlenmeyer flask with a stopper. They are mixed and dissolved for about 30 minutes at normal temperature.
Liquid medium (volume of 200 mL): about 18.0 g of normal broth medium is added to 1 L of water. They were mixed and dissolved for about 30 minutes at normal temperature.
Liquid medium (test tube): about 18.0 g of normal broth medium is added to 1 L of water. […]
The inoculated test tube is placed in a vortex mixer and sealed, and incubated for 24 hours at 37° C. Test segments observed to have opacity after incubation are recorded as “+” and test segments without opacity are recorded as “−”. However, a cotton swab is immersed in the liquid medium of the test segments evaluated as “+”, and the medium is smeared onto a desoxycholate medium (flat plate) from the center to the outside so as to draw a straight line. […]
After culturing for a predetermined time, samples observed to have a typical red colony where the medium was smeared are evaluated as “+”, and samples with no observed red colony is evaluated as “−”. […]

Compound: [O][Cl+][O-] [Dissolved chlorine dioxide]
- Oxidation capability: sodium hypochlorite converted concentration at each phenol coefficient (E. coli [1]; phenol coefficient 0): 0
- Oxidation capability: sodium hypochlorite converted concentration at each phenol coefficient (E. coli [1]; phenol coefficient 1): 139
- Oxidation capability: sodium hypochlorite converted concentration at each phenol coefficient (E. coli [1]; phenol coefficient 2): 279
- Oxidation capability: sodium hypochlorite converted concentration at each phenol coefficient (E. coli [1]; phenol coefficient 3): 418
- Oxidation capability: sodium hypochlorite converted concentration at each phenol coefficient (E. coli [1]; phenol coefficient 5): 697
- Oxidation capability: sodium hypochlorite converted concentration at each phenol coefficient (E. coli [1]; phenol coefficient 10): 1395
- Oxidation capability: sodium hypochlorite converted concentration at each phenol coefficient (E. coli [1]; phenol coefficient 15): 2092
- Oxidation capability: sodium hypochlorite converted concentration at each phenol coefficient (E. coli [1]; phenol coefficient 25): 3487

Compound: sodium chlorite
- phenol coefficient (E. coli [2]; available chlorine concentration of 25% (w/v), saturation concentration): 0
- phenol coefficient per oxidation capability (100) (E. coli [2]; phenol coefficient divided by oxidation capability and multiplied by 100, from the values of Example 1): 0
- Oxidation capability: sodium hypochlorite converted concentration at each phenol coefficient (E. coli [1]; phenol coefficient 0): 0
- Oxidation capability: sodium hypochlorite converted concentration at each phenol coefficient (E. coli [1]; phenol coefficient 1): nonexistent
- Oxidation capability: sodium hypochlorite converted concentration at each phenol coefficient (E. coli [1]; phenol coefficient 2): nonexistent
- Oxidation capability: sodium hypochlorite converted concentration at each phenol coefficient (E. coli [1]; phenol coefficient 3): nonexistent
- Oxidation capability: sodium hypochlorite converted concentration at each phenol coefficient (E. coli [1]; phenol coefficient 5): nonexistent
- Oxidation capability: sodium hypochlorite converted concentration at each phenol coefficient (E. coli [1]; phenol coefficient 10): nonexistent
- Oxidation capability: sodium hypochlorite converted concentration at each phenol coefficient (E. coli [1]; phenol coefficient 15): nonexistent
- Oxidation capability: sodium hypochlorite converted concentration at each phenol coefficient (E. coli [1]; phenol coefficient 25): nonexistent
